Data as given in patent US20030113742A1, “Methods and compositions for the modulation of biofilm formation” (priority 2001, published 2003).

Assays:
P. aeruginosa biofilms [1] = assay: Microarray of genes regulated by tobramycin in P. aeruginosa biofilms; assay type: cell-based, Pseudomonas aeruginosa PAO1; details: for Fold activation ± SE: tobramycin 5 μg/ml 24 h, treated vs untreated biofilms
Procedure: (§1) P. aeruginosa PAO1 was grown at 37° C. with aeration in chemostat vessels (100 ml of medium, dilution rate, 0.2 h^−1). The growth medium consisted of 0.5% NH4Cl, 0.25% NaCl, 0.015% KH2PO4, 1.5% MOPS (pH, 7.0), and 0.015% casamino acids. For biofilms, the chemostat vessel contained 100 g of sterilized granite pebbles (approximately 70 pebbles). Vessels were inoculated with approximately 10^6 P. aeruginosa cells. For biofilm cultures, cells were allowed to attach to the rocks for 24 h prior to initiating the flow of medium, after which flow was initiated at a high rate (100 ml/h). After 2 h at this flow rate, more than 99% of all unattached bacteria were washed away. Flow was then decreased to give a final dilution rate identical to that in the planktonic chemostat. After 5 days cell numbers in the biofilm and planktonic chemostats were similar ([…]) as determined with standard plate counting techniques. To remove biofilm bacteria for plate counting, rocks were vortexed for 2 minutes in 5 ml phosphate buffered saline. A small planktonic population was present in the biofilm reactors throughout the experiment, but never represented more than 0.1% of the total chemostat population.
RNA was isolated from planktonic and biofilm bacteria using the Trizol reagent (Life Technologies, Grand Island, N.Y.). Planktonic cells were pelleted by centrifugation (10,000 rpm for 10 min) at 4° C. For biofilm RNA isolation, rocks containing biofilm bacteria were rinsed with sterile medium and suspended in Trizol reagent. After vortexing for 1 min the rocks were removed and the remaining cell material was sonicated for 10 s. Insoluble material was removed by centrifugation and RNA was isolated as described above. Contaminating DNA was eliminated by DNase treatment, and RNA was isolated by phenol-chloroform extraction and precipitation with LiCl. cDNA probes were produced from RNA using random primers (NSNSNSNSNS) and Cy5-dCTP or Cy3-dCTP (Amersham, Buckinghamshire, UK) according to previously described procedures (J. K. Ichikawa, et al., Proc. Natl. Acad. Sci. U.S.A. 97, 9659 (2000)). To avoid complications associated with Cy5-dCTP and Cy3-dCTP incorporation rates into resulting cDNA, each RNA comparison was performed with both dye combinations on separate microarrays.
The microarrays were glass microscope slides containing representative gene-specific DNA fragments from 5,500 of the estimated 5,570 open reading frames (ORFs) of P. aeruginosa. The microarrays were printed with a Generation II Array printer (Molecular Dynamics), and the hybridized microarrays were images with a Generation II scanning confocal fluorescent microscope (Molecular Dynamics).
The existence in a biofilm might induce moderate levels of resistance to all antimicrobial treatments. This could afford cells in a biofilm the opportunity to respond to an antibiotic by inducing genes more specific to that antibiotic. Thus, biofilms exposed to tobramycin were compared with untreated biofilms. Tobramycin (5 μg/ml) was added to influent medium after 4 days of biofilm growth. After 24 h, biofilms were removed and processed for RNA.
The results (shown in Table 2, below) are from two independent experiments (1 standard error of the mean, SE). Positive values represent activation and negative values represent repression. Gene identifications and P. aeruginosa ORF numbers were obtained from the Pseudomonas Genome Project website. Genes that were repressed in biofilms and activated by tobramycin are underlined. Genes that were activated in biofilms and repressed by tobramycin are shown in italics and bold-face type. Eight of the 20 genes identified as being differentially expressed in tobramycin-treated biofilms (Table 2) were also identified as being differentially expressed in biofilms as compared to planktonic bacterial cells. […]

[2] = test system: planktonic P. aeruginosa PAO1; assay: Minimum inhibitory concentration for planktonic cells; assay type: cell-based, Pseudomonas aeruginosa PAO1
P. aeruginosa biofilms [3] = assay: Plate counting of biofilm cell numbers after tobramycin; assay type: cell-based, Pseudomonas aeruginosa PAO1; details: 5 μg/ml
Procedure: as §1
The existence in a biofilm might induce moderate levels of resistance to all antimicrobial treatments. […]

[4] = test system: P. aeruginosa wild-type and rpoS mutant biofilms; assay: Killing of wild-type and rpoS mutant biofilms by tobramycin; assay type: cell-based, Pseudomonas aeruginosa; details: increasing amounts of tobramycin
Procedure: To examine the involvement of rpoS in biofilm development, the wild-type strain and an isogenic rpoS mutant strain were grown in flow cell reactors and both were tagged with a gfp plasmid which expresses green fluorescent protein (GFP) (Whitely, et al. (2000) J. Bacteriology 182:4356-4360). The P. aeruginosa biofilms that developed in the flow cells were examined by scanning confocal laser microscopy. Within four hours, differences between the rpoS mutant and the wild-type biofilms were evident. The mutant had attached to and covered much more of the glass surface. In a quantitative microtitre dish assay, biofilm formation of the parent strain was 38% of the rpoS mutant. After 24 hours, the mutant biofilm had matured and large structured groups of bacteria were evident.
To assess whether rpoS influences the susceptibility of P. aeruginosa biofilms to antibiotics, biofilms of the P. aeruginosa wild-type and rpoS mutant were treated with increasing amounts of the aminoglycoside antibiotic tobramycin. […] These studies confirm that the microarray experiment, as described herein, identified a gene important for biofilm development and antibiotic susceptibility.

[5] = tobramycin-treated vs untreated biofilms, 7× MIC for planktonic cells

## NC[C@H]1O[C@H](O[C@H]2[C@H](O)[C@@H](O[C@H]3O[C@H](CO)[C@@H](O)[C@H](N)[C@H]3O)[C@H](N)C[C@@H]2N)[C@H](N)C[C@@H]1O [tobramycin]
P. aeruginosa biofilms [1]; gene: Conserved hypothetical protein (PA2498)
  Fold activation ± SE: 2.9 ± 0.6 Fold
P. aeruginosa biofilms [1]; gene: Conserved hypothetical protein (PA3463)
  Fold activation ± SE: 8.3 ± 3.2 Fold
P. aeruginosa biofilms [1]; gene: Conserved hypothetical protein (PA3785)
  Fold activation ± SE: 5.0 ± 1.3 Fold
P. aeruginosa biofilms [1]; gene: Conserved hypothetical protein (PA3819)
  Fold activation ± SE: 2.1 ± 0.3 Fold
P. aeruginosa biofilms [1]; gene: DnaK (PA4761)
  Fold activation ± SE: 2.7 ± 0.4 Fold
P. aeruginosa biofilms [1]; gene: GroES (PA4386)
  Fold activation ± SE: 5.8 ± 1.1 Fold
P. aeruginosa biofilms [1]; gene: Hypothetical protein (PA1110)
  Fold activation ± SE: 8.7 ± 1.7 Fold
P. aeruginosa biofilms [1]; gene: Hypothetical protein (PA1870), negative = repression
  Fold activation ± SE: −6.4 ± 1.5 Fold
P. aeruginosa biofilms [1]; gene: Hypothetical protein (PA1893), negative = repression
  Fold activation ± SE: −2.4 ± 0.3 Fold
P. aeruginosa biofilms [1]; gene: Hypothetical protein (PA2703)
  Fold activation ± SE: 19.3 ± 3.7 Fold
P. aeruginosa biofilms [1]; gene: Hypothetical protein (PA3884), negative = repression
  Fold activation ± SE: −14.7 ± 5.7 Fold
P. aeruginosa biofilms [1]; gene: Hypothetical protein (PA4326)
  Fold activation ± SE: 23.2 ± 7.5 Fold
P. aeruginosa biofilms [1]; gene: Hypothetical protein of bacteriophage PF1 (PA0721), negative = repression
  Fold activation ± SE: −3.9 ± 1.0 Fold
P. aeruginosa biofilms [1]; gene: Hypothetical protein of bacteriophage PF1 (PA0725), negative = repression
  Fold activation ± SE: −3.1 ± 0.5 Fold
P. aeruginosa biofilms [1]; gene: Probable DNA binding protein (PA5348)
  Fold activation ± SE: 18.1 ± 4.9 Fold
P. aeruginosa biofilms [1]; gene: Probable drug efflux protein (PA1541)
  Fold activation ± SE: 4.7 ± 1.4 Fold
P. aeruginosa biofilms [1]; gene: Probable metal transporting P-type ATPase (PA3920)
  Fold activation ± SE: 3.6 ± 1.1 Fold
P. aeruginosa biofilms [1]; gene: Probable transcriptional regulator (PA3574)
  Fold activation ± SE: 3.3 ± 0.6 Fold
P. aeruginosa biofilms [1]; gene: Ribosome modulation factor (PA3049)
  Fold activation ± SE: 24.7 ± 11.4 Fold
P. aeruginosa biofilms [1]; gene: Urease beta subunit (PA4867), negative = repression
  Fold activation ± SE: −3.7 ± 1.1 Fold
P. aeruginosa biofilms [1]; [5]
  number of genes activated by tobramycin: 14
  number of genes differentially expressed in tobramycin-treated biofilms: Twenty
  number of genes repressed by tobramycin: 6
[2]
  5 μg/ml concentration as multiple of the minimum inhibitory concentration: approximately 7 ×
P. aeruginosa biofilms [3]
  effect on cell numbers in biofilms: did not significantly affect cell numbers in biofilms
[4]
  resistance of rpoS mutant biofilms to killing by tobramycin compared with wild-type biofilms: much more resistant
